Laboratory results published in patent US20240376097A1, “BCL-2 Inhibitor” (BeiGene Ltd., priority 2020, published 2024).
Read-outs that look alike come from different tables or passages of the source.

Columns and labels:
Assay type in all cases: binding
[1] = biological target: Recombinant human Bcl-2 protein (Homo sapiens (Human), UniProt P10415); experiment: Bcl-2 TR-FRET Assay
Description: Biological Example: Bcl-2 TR-FRET Assay
Compounds disclosed herein were tested for blocking of Bcl-2 protein with its ligand in an assay based on Time-Resolved Fluorescence Resonance Energy Transfer (TR-FRET) methodology. Recombinant human 0.05 nM Bcl-2 protein was pre-incubated with a serial dilution of compounds disclosed herein (top final concentration is 1 uM or 0.1 uM or 0.02 uM or 0.01 uM, 10 points) at room temperature for 0.5 hour in an assay buffer containing 20 mM potassium phosphate buffer, pH 7.5, 50 mM NaCl. 1 mM EDTA, 0.05% Tween-20, 0.01% BSA. Then the FITC labeled Bak peptide Ac-GQVGRQLAIIGDK(FITC)INR-amide (0.5 nM) and MAb Anti 6His Tb cryptate Gold were added to plate and further incubated at room temperature for 1 hour. The TR-FRET signals (337 nm-520 nm-490 nm) were read on BMG PHERAstar FSX instrument. The inhibition percentage of Bcl-2 interaction with its ligand in presence of increasing concentrations of compounds was calculated based on the TR-FRET signals. The IC50 for each compound was derived from fitting the data to the four-parameter logistic equation by Graphpad Prism software or Dotmatics.

[2] = system: recombinant human Bcl-2-G101V protein; experiment: Bcl-2-G101V TR-FRET Assay; conditions: for Ratio of Bcl-2 G101V/WT: ratio of biochemical IC50 Bcl-2 G101V / Bcl-2 WT
Description: (§1) Biological Example: Bcl-2-G101V TR-FRET Assay
(§2) […]. The TR-FRET signals (ex337 nm, em490 nm/520 nm) were read on BMG PHERAstar FSX instrument. The inhibition percentage of Bcl-2-G101V interaction with its ligand in presence of increasing concentrations of compounds was calculated based on the ratio of fluorescence at 490 nm to that at 520 nm. The IC50 for each compound was derived from fitting the data to the four-parameter logistic equation by Graphpad Prism software or Dotmatics.

[3] = biological target: recombinant human Bcl-2-G101V protein (Homo sapiens (Human), UniProt P10415, G101V); experiment: Bcl-2-G101V TR-FRET Assay; conditions: Bcl-2 G101V mutant, TR-FRET; read-out: Biochemical assay (IC50, nM) Bcl-2 G101V
Description: as §1, §2

[4] = biological target: recombinant human Bcl-2 D103Y protein (Homo sapiens (Human), UniProt P10415, D103Y); experiment: Bcl-2-D103Y Biochemical Assay (TR-FRET); conditions: for IC50: TR-FRET, FITC labeled Bak peptide; for Ratio of Bcl-2 D103Y/Bcl-2 WT: ratio of IC50
Description: Biological Example: Bcl-2-D103Y Biochemical Assay
as §2, with “Bcl-2 D103Y” for “Bcl-2-G101V”, “by” for “by Graphpad Prism software or”

[5] = Bcl-2 wild type, TR-FRET, read-out: Biochemical assay (IC50, nM) Bcl-2 WT
[6] = wild type Bcl-2, unit inferred, read-out: Bcl-2 WT

| Compound | Ratio of Bcl-2 G101V/WT [2] | IC50 [1, 6] | IC50 [4] | Ratio of Bcl-2 D103Y/Bcl-2 WT [4] | other results |
| --- | --- | --- | --- | --- | --- |
| COc1ccc(N2CCCC(N3CCN(C4CC5(CCN(c6ccc(C(=O)NS(=O)(=O)c7ccc(NC[C@H]8CC[C@](C)(O)CC8)c([N+](=O)[O-])c7)c(Oc7cnc8[nH]ccc8c7)c6)CC5)C4)C(c4ccccc4C(C)C)C3)C2)cc1 (stereo partly shown) [Example 139, 2-((1H-pyrrolo[2,3-b]pyridin-5-yl)oxy)-N-((4-((((1r,4r)-4-hydroxy-4-methylcyclohexyl)methyl)amino)-3-nitrophenyl)sulfonyl)-4-(2-(2-(2-isopropylphenyl)-4-(1-(4-methoxyphenyl)piperidin-3-yl)piperazin-1-yl)-7-azaspiro[3.5]nonan-7-yl)benzamide] | 8.7 | – | – | – | IC50 [1, 5]: 0.65 nM; IC50 [3]: 5.6 nM |
| COc1ccc(CN2CCN(C3CC4(C3)CN(c3ccc(C(=O)NS(=O)(=O)c5ccc(NC[C@H]6CC[C@](C)(O)CC6)c([N+](=O)[O-])c5)c(Oc5cnc6[nH]cc(Cl)c6c5)c3)C4)[C@H](c3ccccc3C(C)C)C2)cc1 [Example 207, 2-((3-chloro-1H-pyrrolo[2,3-b]pyridin-5-yl)oxy)-N-((4-((((1r,4r)-4-hydroxy-4-methylcyclohexyl)methyl)amino)-3-nitrophenyl)sulfonyl)-4-(6-((R)-2-(2-isopropylphenyl)-4-(4-methoxybenzyl)piperazin-1-yl)-2-azaspiro[3.3]heptan-2-yl) benzamide] | – | 0.2 nM | 0.22 nM | 1.1 | – |
| CC(C)c1ccccc1C1CN(C(C)C)CCN1C1CC2(CCN(c3ccc(C(=O)NS(=O)(=O)c4ccc(NC[C@H]5CC[C@](C)(O)CC5)c([N+](=O)[O-])c4)c(Oc4cnc5[nH]ccc5c4)c3)CC2)C1 (stereo partly shown) [Example 3, 2-((1H-pyrrolo[2,3-b]pyridin-5-yl)oxy)-N-((4-((((1r,4r)-4-hydroxy-4-methylcyclohexyl)methyl)amino)-3-nitrophenyl)sulfonyl)-4-(2-(4-isopropyl-2-(2-isopropylphenyl)piperazin-1-yl)-7-azaspiro[3.5]nonan-7-yl)benzamide] | – | 0.019 nM | 0.11 nM | 11 | – |
| CC(C)c1ccccc1C1CN(Cc2cccc3c2OC(F)(F)O3)CCN1C1CC2(CCN(c3ccc(C(=O)NS(=O)(=O)c4ccc(NC[C@H]5CC[C@](C)(O)CC5)c([N+](=O)[O-])c4)c(Oc4cnc5[nH]ccc5c4)c3)CC2)C1 (stereo partly shown) [Example 129, 2-((1H-pyrrolo[2,3-b]pyridin-5-yl)oxy)-4-(2-(4-((2,2-difluorobenzo [d][1,3]dioxol-4-yl)methyl)-2-(2-isopropylphenyl)piperazin-1-yl)-7-azaspiro[3.5]nonan-7-yl)-N-((4-((((1r,4r)-4-hydroxy-4-methylcyclohexyl)methyl)amino)-3-nitrophenyl)sulfonyl)benzamide] | 4.4 | – | – | – | IC50 [1, 5]: 1.8 nM; IC50 [3]: 7.8 nM |
| COc1cc(CN2CCN(C3CC4(CCN(c5ccc(C(=O)NS(=O)(=O)c6ccc(NC[C@H]7CC[C@](C)(O)CC7)c([N+](=O)[O-])c6)c(Oc6cnc7[nH]ccc7c6)c5)CC4)C3)C(c3ccccc3C(C)C)C2)cc(C(F)(F)F)c1 (stereo partly shown) [Example 227, 2-((1H-pyrrolo[2,3-b]pyridin-5-yl)oxy)-N-((4-((((1r,4r)-4-hydroxy-4-methylcyclohexyl)methyl)amino)-3-nitrophenyl)sulfonyl)-4-(2-(2-(2-isopropylphenyl)-4-(3-methoxy-5-(trifluoromethyl)benzyl)piperazin-1-yl)-7-azaspiro[3.5]nonan-7-yl) benzamide] | 3.2 | – | – | – | IC50 [1, 5]: 2 nM; IC50 [3]: 6.4 nM |
| CC(C)c1ccccc1[C@@H]1CN(Cc2cnn(C)c2)CCN1C1CC2(CCN(c3ccc(C(=O)NS(=O)(=O)c4ccc(NC[C@H]5CC[C@](C)(O)CC5)c([N+](=O)[O-])c4)c(Oc4cnc5[nH]ccc5c4)c3)CC2)C1 (single isomer, unassigned) [Example 22a, 2-((1H-pyrrolo[2,3-b]pyridin-5-yl)oxy)-N-((4-((((1r,4r)-4-hydroxy-4-methylcyclohexyl)methyl)amino)-3-nitrophenyl)sulfonyl)-4-(2-((R or S)-2-(2-isopropylphenyl)-4-((1-methyl-1H-pyrazol-4-yl)methyl)piperazin-1-yl)-7-azaspiro [3.5]nonan-7-yl)benzamide] | 8.1 | – | – | 5.2 | ratio of Bcl-2 D103Y/Bcl-2 wt, compared with F91b in WO2019210828 ([4]; comparison in words): significantly lower |
| CC(C)c1ccccc1C1CN(C2COC2)CCN1C1CC2(CCN(c3ccc(C(=O)NS(=O)(=O)c4ccc(NC[C@H]5CC[C@](C)(O)CC5)c([N+](=O)[O-])c4)c(Oc4cnc5[nH]ccc5c4)c3)CC2)C1 (single isomer, unassigned) [Example 6a, 2-((1H-pyrrolo[2,3-b]pyridin-5-yl)oxy)-N-((4-((((1r,4r)-4-hydroxy-4-methylcyclohexyl)methyl)amino)-3-nitrophenyl)sulfonyl)-4-(2-((S or R)-2-(2-isopropylphenyl)-4-(oxetan-3-yl)piperazin-1-yl)-7-azaspiro[3.5]nonan-7-yl)benzamide] | – | 0.0078 nM | 0.11 nM | – | – |
| COc1ccc(N(C)C2CCN(C3CC4(CCN(c5ccc(C(=O)NS(=O)(=O)c6ccc(NC[C@H]7CC[C@](C)(O)CC7)c([N+](=O)[O-])c6)c(Oc6cnc7[nH]ccc7c6)c5)CC4)C3)C(c3ccccc3C(C)C)C2)cc1 (stereo partly shown) [Example 150] | – | 0.13 nM | 0.53 nM | 4.1 | – |
| CC(C)c1ccccc1[C@H]1CN(C2COC2)CCN1C1CC2(CCN(c3ccc(C(=O)NS(=O)(=O)c4ccc(NC[C@H]5CC[C@](C)(O)CC5)c([N+](=O)[O-])c4)c(Oc4cnc5[nH]ccc5c4)c3)CC2)C1 (single isomer, unassigned) [Example 6a, 2-((1H-pyrrolo[2,3-b]pyridin-5-yl)oxy)-N-((4-((((1r,4r)-4-hydroxy-4-methylcyclohexyl)methyl)amino)-3-nitrophenyl)sulfonyl)-4-(2-((S or R)-2-(2-isopropylphenyl)-4-(oxetan-3-yl)piperazin-1-yl)-7-azaspiro[3.5]nonan-7-yl)benzamide] | – | – | – | 13 | – |
| COc1ccc(CN2CCN(C3CC4(CCN(c5ccc(C(=O)NS(=O)(=O)c6ccc(NCC7CCC(CO)O7)c([N+](=O)[O-])c6)c(Oc6cnc7[nH]ccc7c6)c5)CC4)C3)[C@H](c3ccccc3C(C)C)C2)cc1 (stereo partly drawn) [Example 220, 2-((1H-pyrrolo[2,3-b]pyridin-5-yl)oxy)-N-((4-(((5-(hydroxymethyl)tetrahydrofuran-2-yl)methyl)amino)-3-nitrophenyl)sulfonyl)-4-(2-((R)-2-(2-isopropylphenyl)-4-(4-methoxybenzyl)piperazin-1-yl)-7-azaspiro[3.5]nonan-7-yl) benzamide] | – | 0.044 nM | 0.077 nM | 1.8 | – |
| CC(C)c1ccccc1C1CN(Cc2ccc3occc3c2)CCN1C1CC2(CCN(c3ccc(C(=O)NS(=O)(=O)c4ccc(NC[C@H]5CC[C@](C)(O)CC5)c([N+](=O)[O-])c4)c(Oc4cnc5[nH]ccc5c4)c3)CC2)C1 (stereo partly shown) [Example 96, 2-((1H-pyrrolo[2,3-b]pyridin-5-yl)oxy)-4-(2-(4-(benzofuran-5-ylmethyl)-2-(2-isopropylphenyl)piperazin-1-yl)-7-azaspiro[3.5]nonan-7-yl)-N-((4-((((1r,4r)-4-hydroxy-4-methylcyclohexyl)methyl)amino)-3-nitrophenyl)sulfonyl)benzamide] | – | 0.041 nM | 0.23 nM | 5.6 | – |
| COc1ccc(C(=O)N2CCN(C3CC4(CCN(c5ccc(C(=O)NS(=O)(=O)c6ccc(NC[C@H]7CC[C@](C)(O)CC7)c([N+](=O)[O-])c6)c(Oc6cnc7[nH]ccc7c6)c5)CC4)C3)C(c3ccccc3C(C)C)C2)cc1 (stereo partly shown) [Example 61, 2-((1H-pyrrolo[2,3-b]pyridin-5-yl)oxy)-N-((4-((((1r,4r)-4-hydroxy-4-methylcyclohexyl)methyl)amino)-3-nitrophenyl)sulfonyl)-4-(2-(2-(2-isopropylphenyl)-4-(4-methoxybenzoyl)piperazin-1-yl)-7-azaspiro[3.5]nonan-7-yl) benzamide] | – | – | – | – | ratio of IC50 of Bcl-2 G101V/Bcl-2 wt, compared with Example F132b in WO2019210828 and ABT-199 (venetoclax) ([2]; comparison in words): much lower |
